Target: C4-reductase from serotype HS:15 (HS:15) (Campylobacter jejuni, UniProt F2X7A6)
Experiment: X-ray crystal structure, […] A
Format: binding
Settings: co-crystallised with 5 mM NADPH and 5 mM GDP; pH 7.5; active site

| SMILES | X-ray crystal structure, 1.45 A |
| --- | --- |
| Nc1nc2c(ncn2[C@@H]2O[C@H](COP(=O)(O)OP(=O)(O)O)[C@@H](O)[C@H]2O)c(=O)[nH]1 [GDP] | the corresponding electron densities for the GDP and NADPH ligands were unambiguous |
| NC(=O)C1=CN([C@@H]2O[C@H](COP(=O)(O)OP(=O)(O)OC[C@H]3O[C@@H](n4cnc5c(N)ncnc54)[C@H](OP(=O)(O)O)[C@@H]3O)[C@@H](O)[C@H]2O)C=CC1 [NADPH] | the corresponding electron densities for the GDP and NADPH ligands were unambiguous |

From PMC9838653 (Biochemistry, 2022)
